In patent US12195427B2, “MASP-2 inhibitors and methods of use” (priority 2018, dated 2025):

Molecular target: MASP-2 CCP2-SP (Homo sapiens (Human), UniProt O00187)
Experiment: MASP-2 co-crystallization, X-ray crystallography and structure analysis (H-bonds, van der Waals contacts);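 on Ligand-pharmacophore element distance, pharmacophore element C2: distance from averaged pharmacophore element to bound ligand; missing value means element absent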;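 on Ligand-pharmacophore element distance, pharmacophore element C3: distance from averaged pharmacophore element to bound ligand; missing value means element absent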;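 on Ligand-pharmacophore element distance, pharmacophore element C4: distance from averaged pharmacophore element to bound ligand; missing value means element absent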;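 on Ligand-pharmacophore element distance, pharmacophore element C5: distance from averaged pharmacophore element to bound ligand; missing value means element absent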
Parameters: van der Waals contact distance, MASP-2 HIS 483 atom CD2 / van der Waals contact distance, MASP-2 HIS 483 atom NE2 / van der Waals contact distance, SER 654 C to compound atom / van der Waals contact distance, SER 654 O to compound atom / van der Waals contact distance, TRP 655 C to compound atom / van der Waals contact distance, MASP-2 GLY 528 atom CA / van der Waals contact distance TRP 655 atom CZ3 / van der Waals contact distance TRP 655 atom N / van der Waals contact distance TRP 655 atom CE3 / van der Waals contact distance GLY 656 atom C / van der Waals contact distance GLY 656 atom CA / van der Waals contact distance GLY 656 atom O / van der Waals contact distance, MASP-2 TYR 607 atom CD1 / van der Waals contact distance, MASP-2 PRO 606 atom O / d(C3,CA1) / d(CA1,N1)2 / d(H4,O1) / d(H4,O2) / d(O1,O2) / d(CA1,O2) / d(CA6,O1) / d(CA6,O2) / d(CA1,C5) / d(O2,H3) / d(N2,C2) / d(CA5,N2) / d(N2,C4) / d(N2,C6) / d(N2,CA3) / d(N2,O3) / d(O4,H2): unit not given beside the values
Details: for Ligand-pharmacophore element distance, pharmacophore element C2 / Ligand-pharmacophore element distance, pharmacophore element C3 / Ligand-pharmacophore element distance, pharmacophore element C4 / Ligand-pharmacophore element distance, pharmacophore element C5 / Ligand-pharmacophore element distance, pharmacophore element C6 / Ligand-pharmacophore element distance, pharmacophore element C7 / Ligand-pharmacophore element distance, pharmacophore element CA1 / Ligand-pharmacophore element distance, pharmacophore element CA2 / Ligand-pharmacophore element distance, pharmacophore element CA3 / Ligand-pharmacophore element distance, pharmacophore element CA4 / Ligand-pharmacophore element distance, pharmacophore element CA5 / Ligand-pharmacophore element distance, pharmacophore element CA6: Table A4-1; for d(CA1,C5) / d(CA1,O1) / d(CA1,O2) / d(CA1,O4) / d(H4,O1) / d(H4,O2) / d(O1,O2) / d(O4,H2): Table A5-1 pharmacophore: distance between elements, S2/S1 region; for d(N2,C2) / d(N2,CA2) / d(O2,H3) / d(O2,N2): Table A5-2 pharmacophore distance, S3/S4 region; for a(C5, CA1, O1) / a(CA1, O1, O2) / a(CA1, O4, H2) / a(O1, CA1, O4) / a(O1, O2, H4): Table A6-1 pharmacophore angle; for a(O1, O2, H3) / a(O1, O2, N2) / a(O2, N2, C2) / a(O2, N2, CA2): Table A6-2 pharmacophore angle; for Pharmacophore torsion angle a(C5, CA1, O1, H4) / Pharmacophore torsion angle a(H4, O1, O2, H3) / Pharmacophore torsion angle a(H4, O1, O2, N2) / Pharmacophore torsion angle a(O1, H4, O2, CA1) / Pharmacophore torsion angle a(O1, O2, N2, C2): Table A7-1; for Pharmacophore torsion angle a(C5, CA1, O1, H4) / Pharmacophore torsion angle a(H4, O1, O2, H3) / Pharmacophore torsion angle a(H4, O1, O2, N2) / Pharmacophore torsion angle a(O1, H4, O2, CA1) / Pharmacophore torsion angle a(O1, O2, N2, C2) / Pharmacophore torsion angle a(O1, O2, N2, CA2): between pharmacophore elements of the bound compound; for Pharmacophore torsion angle a(O1, O2, N2, CA2): Table A7-2
Excerpt: This example illustrates the preparation of recombinant MASP-2 protein, based on UniProt O00187, human mannan-binding lectin serine protease 2. Expression constructs for human MASP-2 CCP2-SP and CCP2-SP-6HIS were generated for recombinant expression in E. coli cells.
Typically, crystallization hits were obtained by screening against […] 96-well crystallization reagent kits (GRAS6, GRAS2, Hampton Research; MORPHEUS, Molecular Dimensions; Wizard 1&2 Cryo, Rigaku Reagents) and crystal growth was inspected by optical microscopy. Crystals were used directly or further optimized for X-ray diffraction. Crystals were captured with cryogenic loops and dipped into liquid nitrogen directly or cryoprotected with a 20% glycerol in crystallization formulation before flash-cooling in liquid nitrogen.
Thereafter crystals are transferred once or twice for soaking within the crystallization solution containing the MASP-2 inhibitor.
Crystals were diffracted with synchrotron X-rays of […] and X-ray diffraction datasets were collected at beamlines SSRL BL9-2, BL14-1, BL12-2 as well as ALS sector 5 using Dectris Pilatus and Eiger detectors. Structures were determined by molecular replacement using portions of the structure 1Q3X as search models and partially refined with Buster 2.10.2 or Refmac 5.8. […] When multiple ligand poses were observed, for instance arising from multiple molecules in the asymmetric unit or refined dual poses within the same molecule, only one pose was selected and analyzed.
LigPlot+ calls these ‘nonbonded contacts’ or ‘hydrophobic contacts’. Despite the name, there are atom pairings that include possible H-bonds. Thus, in some instances, the Table A2 also contains H-bond interactions.

Sequence of MASP-2 CCP2-SP (O00187 445-686): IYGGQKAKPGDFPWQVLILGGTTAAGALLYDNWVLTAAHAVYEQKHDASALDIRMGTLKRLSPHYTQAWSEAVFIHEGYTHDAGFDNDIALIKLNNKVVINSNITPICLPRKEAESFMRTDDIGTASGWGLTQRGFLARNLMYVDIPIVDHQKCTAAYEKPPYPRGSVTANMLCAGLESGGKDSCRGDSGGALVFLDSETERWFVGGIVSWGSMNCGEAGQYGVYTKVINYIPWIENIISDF
Sequence of MASP-2 CCP2-SP (O00187 364-432 partner): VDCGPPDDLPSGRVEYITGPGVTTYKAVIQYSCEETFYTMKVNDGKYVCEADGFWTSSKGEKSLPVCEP

Compound	Ligand-pharmacophore element distance, pharmacophore element C2	Ligand-pharmacophore element distance, pharmacophore element C3	Ligand-pharmacophore element distance, pharmacophore element C4	Ligand-pharmacophore element distance, pharmacophore element C5	Ligand-pharmacophore element distance, pharmacophore element C6	Ligand-pharmacophore element distance, pharmacophore element C7	Ligand-pharmacophore element distance, pharmacophore element CA1	Ligand-pharmacophore element distance, pharmacophore element CA2	Ligand-pharmacophore element distance, pharmacophore element CA3	Ligand-pharmacophore element distance, pharmacophore element CA4	Ligand-pharmacophore element distance, pharmacophore element CA5	Ligand-pharmacophore element distance, pharmacophore element CA6	d(CA1,C5)	d(CA1,O1)	d(CA1,O2)	d(CA1,O4)	d(H4,O1)	d(H4,O2)	d(O1,O2)	d(O4,H2)	other results
C[C@H](NC(=O)[C@H]1C[C@@H](c2ccccc2)CCN1)C(=O)NCc1cc(Cl)ccc1O.Cl [1078_7]	0.64	0	0	0.61	0	0	1.69	0.55	0	0	0	0	3.14	4.83	4.83	2.77	2.08	2.49	3.35	0.97	d(N2,C2): 1.47; d(N2,CA2): 5.74; d(O2,H3): 3.26; d(O2,N2): 3.04; a(C5, CA1, O1): 158.86; a(CA1, O1, O2): 110.36; a(CA1, O4, H2): 126.10; a(O1, CA1, O4): 67.29; a(O1, O2, H4): 86.28; a(O1, O2, H3): 137.32; a(O1, O2, N2): 140.50; a(O2, N2, C2): 114.22; a(O2, N2, CA2): 151.33; Pharmacophore torsion angle a(C5, CA1, O1, H4): 30.48; Pharmacophore torsion angle a(H4, O1, O2, H3): −121.10; Pharmacophore torsion angle a(H4, O1, O2, N2): −116.26; Pharmacophore torsion angle a(O1, H4, O2, CA1): −57.85; Pharmacophore torsion angle a(O1, O2, N2, C2): 144.61; Pharmacophore torsion angle a(O1, O2, N2, CA2): 143.84
C[C@H](NC(=O)[C@H]1C[C@@H](c2ccccc2)CCN1)C(=O)NCc1cc(Cl)ccc1O.Cl [1078_8]	0.85	0	0	0.78	0	0	1.67	0.92	0	0	0	0	3.10	4.33	4.59	2.75	2.28	2.53	2.73	0.98	d(N2,C2): 1.44; d(N2,CA2): 5.66; d(O2,H3): 2.69; d(O2,N2): 2.85; a(C5, CA1, O1): 159.05; a(CA1, O1, O2): 112.99; a(CA1, O4, H2): 125.48; a(O1, CA1, O4): 73.28; a(O1, O2, H4): 111.09; a(O1, O2, H3): 140.66; a(O1, O2, N2): 145.13; a(O2, N2, C2): 125.44; a(O2, N2, CA2): 153.81; Pharmacophore torsion angle a(C5, CA1, O1, H4): 5.11; Pharmacophore torsion angle a(H4, O1, O2, H3): −134.33; Pharmacophore torsion angle a(H4, O1, O2, N2): −122.87; Pharmacophore torsion angle a(O1, H4, O2, CA1): −58.50; Pharmacophore torsion angle a(O1, O2, N2, C2): 135.84; Pharmacophore torsion angle a(O1, O2, N2, CA2): 143.43
